Assay results published in US6482849B1, “Inhibitors of α4β1 mediated cell adhesion” (Tanabe Seiyaku Co., Ltd., priority 1997, dated 2002).
Read-outs that look alike come from different tables or passages of the source.

Experiments:
[1] = tested on: VLA-4 integrin-dependent eosinophil infiltration; assay: Dextran pleurisy model (dextran-induced pleural leukocyte infiltration); format: in vivo, C57BL/6 mice; settings: 4 h post-induction; for change in vivo at 50 mg/kg / change in vivo at 25 mg/kg: Mus musculus; for change in vivo at 25 mg/kg: 25 mg/kg × 2 iv (0h,+1h relative to dextran)
Protocol: C57BL/6 mice (Jackson, Bar Harbor, Me.;), 6-8 weeks old, weighing 20-25 g were used throughout. All mice were acclimated for at least 7-14 days after arrival and maintained under controlled temperature (20-22° C.) and a 12 hr daily light cycle (6.00 A.M.-6.00 P.M.). Mice were housed in laminar flow racks and checked biweekly for viral infections (mouse hepatitis virus, minute virus of mice, rodent orphan parvovirus, Sendai) with kits obtained from Oreganon Teknika (Durham, N.C.) using established enzyme-linked immunoabsorbent assays. Mice testing positive for any of the above were omitted from the study. All mice were fed standard laboratory chow (Upjohn Lab Rodent Irradiated Mouse Chow, #5011-3, PMI Feeds, St. Louis, Mo.) and acidified drinking water (pH 5.0) ad libitum.
Intrapleural injections were made using a 27 G needle cut to 3-4 mm and blunted by filing. Injections were made by inserting the needle between the mid-intercostal ribs on the right side of the thoracic cavity.
Dextran (MW 5-40×10^6, St Louis, Mo.) was injected as a 10% solution in saline in a volume of 100 μl/mouse. Care was taken to avoid bleeding at the site of injection at which the intercostal muscles were cut to facilitate smooth insertion of the needle.
Pleural leukocytes were collected as follows: 4 h post-induction, pleural inflammatory exudate was removed by washing with 2×1.0 ml Ca^++/Mg^++ free HBSS (Gibco, Grand Island, N.Y.) containing 45 mg EDTA/100 ml HBSS, 4° C. Total leukocyte counts were made by hemocytometer following erythrocyte lysis in 2% acetic acid in PBS buffer; exudate leukocyte pellets were resuspended in serum for cytospin preparations and stained (Diff Quik, Baxter Healthcare, McGraw Park, Ill.) for differential leukocyte counts (neutrophils, eosinophils, and mononuclear leukocytes).
The pleural cavities of mice receiving either no intrapleural injection, or saline were washed and the cells counted in the same way to estimate baseline or saline-induced pleural leukocyte counts respectively.
All drugs were dissolved in PBS and the pH adjusted to 7.5 with NaOH. Each drug was administered intravenously through the retroorbital sinus at hourly intervals (0-3 h) starting from time “0” as indicated.
The following camphoric acid analogues were tested for their inhibitory effects on dextran-induced leukocyte infiltration: Examples 4, 12, 54, 63, 166, 93, 180, 181, 183, 184, 217, Camphoric acid or PBS (saline) was administered iv. as a control. Inhibition of eosinophil infiltration, which was suppressed by anti-alpha-4 Mab (PS/2, 50%), was used as a readout of VLA-4 antagonist activity of the camphoric acids tested. Data for neutrophils are also reported.

[2] = target: T1, α4β1 integrin (Jurkat cell adhesion to immobilized CS-1 derived peptide CLHPGEILDVPST) (Homo sapiens, UniProt P05556+P13612); assay: Jurkat-CS-1 Assay; format: cell-based; settings: Jurkat cells on CS-1 peptide coated plates
T1 construct: 100 μl of Jurkat cells (2.5×10^6 cells/ml) in DMEM plus BSA; endogenous in cells; host or cells: Jurkat T-cell line
T1 sequence (P13612 34-1032): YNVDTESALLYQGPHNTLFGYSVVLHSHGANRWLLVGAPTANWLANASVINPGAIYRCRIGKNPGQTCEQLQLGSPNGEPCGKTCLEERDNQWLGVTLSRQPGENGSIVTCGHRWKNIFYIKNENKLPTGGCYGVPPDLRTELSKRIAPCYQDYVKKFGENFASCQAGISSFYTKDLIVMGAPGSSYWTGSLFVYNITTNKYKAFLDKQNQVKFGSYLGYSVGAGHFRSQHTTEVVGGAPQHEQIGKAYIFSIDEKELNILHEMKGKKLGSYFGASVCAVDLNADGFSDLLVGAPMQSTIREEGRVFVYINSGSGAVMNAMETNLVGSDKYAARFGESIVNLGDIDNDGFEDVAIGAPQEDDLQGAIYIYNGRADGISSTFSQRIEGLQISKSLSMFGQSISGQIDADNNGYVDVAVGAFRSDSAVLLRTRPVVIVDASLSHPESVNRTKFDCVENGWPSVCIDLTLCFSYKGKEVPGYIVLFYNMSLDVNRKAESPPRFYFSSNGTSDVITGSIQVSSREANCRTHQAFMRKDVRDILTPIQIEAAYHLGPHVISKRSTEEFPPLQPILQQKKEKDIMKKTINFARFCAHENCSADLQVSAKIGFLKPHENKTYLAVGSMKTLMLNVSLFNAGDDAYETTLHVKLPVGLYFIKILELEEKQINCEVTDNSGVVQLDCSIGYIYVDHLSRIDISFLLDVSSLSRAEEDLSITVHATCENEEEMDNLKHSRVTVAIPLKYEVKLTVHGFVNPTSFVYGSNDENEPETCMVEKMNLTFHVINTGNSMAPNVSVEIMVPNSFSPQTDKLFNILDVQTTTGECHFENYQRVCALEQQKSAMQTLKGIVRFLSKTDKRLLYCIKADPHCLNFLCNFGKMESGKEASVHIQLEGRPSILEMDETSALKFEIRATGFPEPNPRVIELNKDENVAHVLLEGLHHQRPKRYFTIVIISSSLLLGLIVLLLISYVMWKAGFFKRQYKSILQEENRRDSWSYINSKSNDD
T1 sequence (P05556 21-798): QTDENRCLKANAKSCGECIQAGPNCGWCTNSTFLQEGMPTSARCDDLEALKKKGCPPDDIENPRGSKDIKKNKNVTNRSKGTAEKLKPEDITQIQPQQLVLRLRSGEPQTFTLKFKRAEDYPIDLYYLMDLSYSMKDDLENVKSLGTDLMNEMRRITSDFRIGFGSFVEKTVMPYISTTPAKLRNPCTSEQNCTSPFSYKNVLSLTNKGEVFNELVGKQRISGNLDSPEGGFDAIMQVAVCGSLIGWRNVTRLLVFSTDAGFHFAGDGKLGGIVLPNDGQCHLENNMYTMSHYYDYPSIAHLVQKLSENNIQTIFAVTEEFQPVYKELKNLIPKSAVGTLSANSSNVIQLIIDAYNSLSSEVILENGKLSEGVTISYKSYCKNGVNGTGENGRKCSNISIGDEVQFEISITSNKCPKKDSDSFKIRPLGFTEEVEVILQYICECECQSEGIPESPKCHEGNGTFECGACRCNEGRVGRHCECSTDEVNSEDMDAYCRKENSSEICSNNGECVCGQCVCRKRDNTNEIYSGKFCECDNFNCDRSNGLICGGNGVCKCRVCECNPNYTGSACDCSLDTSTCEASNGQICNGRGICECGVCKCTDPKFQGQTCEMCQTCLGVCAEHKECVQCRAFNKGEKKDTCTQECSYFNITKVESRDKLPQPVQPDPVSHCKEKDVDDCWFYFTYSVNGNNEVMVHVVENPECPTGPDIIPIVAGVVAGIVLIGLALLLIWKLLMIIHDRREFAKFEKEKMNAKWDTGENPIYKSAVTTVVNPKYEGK
Outline: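 CS-1 peptide was SPDP-crosslinked onto HSA-coated plates and blocked with BSA. Jurkat cells (2.5×10^6 cells/ml) in DMEM/BSA were mixed with compound, generally at 100, 20, 5 and 1.25 μM, and allowed to adhere for 1 hr at 37° C. Bound cells were fixed, stained with toluidine blue and quantified by OD590.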

[3] = target: T2, α4β1 integrin (Jurkat T-cell adhesion to IL-1 stimulated endothelial cell monolayers) (Homo sapiens, UniProt P05556+P13612); assay: Jurkat-Endothelial Cell Adhesion Assay (Jurkat EC); format: cell-based; settings: Jurkat cells on IL-1 stimulated HUVEC monolayers
T2 construct: a T-cell line, Jurkat, known to express the α4β1 integrin; host or cells: Jurkat T-cell line
T2 sequence (P13612 34-1032): as the sequence (P13612 34-1032) above
T2 sequence (P05556 21-798): as the sequence (P05556 21-798) above
Outline: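 BCECF-loaded Jurkat cells (5×10^5) mixed with compound (generally 100, 20, 5 and 1.25 μM) and added to HUVEC monolayers prestimulated 4 hr with 0.1 ng/ml IL-1, in DMEM-HSA. After 5 min on ice and 20 min at 37° C, washed; fluorescence gives % adhesion relative to no-compound control set at 100%.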

[4] = 50 mg/kg × 2 iv (0h,+1h relative to dextran)
[5] = 50 mg/kg × 4 iv (0h,+1h,+2h,+3h relative to dextran)
[6] = Eosinophil, 50 mg/kg × 2 iv (0h,+1h relative to dextran), read-out: %Δ Pleural Leukocytes, Eos
[7] = Neutrophil, 50 mg/kg × 2 iv (0h,+1h relative to dextran), read-out: %Δ Pleural Leukocytes, Neutro
[8] = Eosinophil, read-out: %Δ Pleural Leukocytes, Eos
[9] = Neutrophil, read-out: %Δ Pleural Leukocytes, Neutro

SMILES | IC50 [2] | IC50 [3] | melting point | change in vivo at 50 mg/kg [1, 6] | change in vivo at 50 mg/kg [1, 7] | also measured
CC1(C)[C@@H](C(=O)N[C@@H](Cc2ccc(OCc3c(Cl)cccc3Cl)cc2)C(=O)O)CC[C@@]1(C)C(=O)O (relative stereo) [Example 12, (1S-cis)-N-[(3-Carboxy-2,2,3-trimethylcyclopentyl)carbonyl]-O-[(2,6-dichlorophenyl)methyl]-L-tyrosine] | ≤ 80 nM | ≤ 800 nM | – | – | – | %Δ Pleural Leukocytes, Eos [1, 4]: A (A≦−50); %Δ Pleural Leukocytes, Neutro [1, 4]: B (−50<B<−10); %Δ Pleural Leukocytes, Eos [1, 5]: A (A≦−50); %Δ Pleural Leukocytes, Neutro [1, 5]: B (−50<B<−10)
CC1(C)[C@@H](C(=O)N[C@@H](Cc2cn(Cc3ccc(Cl)c(Cl)c3)cn2)C(=O)O)CC[C@@]1(C)C(=O)O [Example 4, (1S-cis)-N-[(3-Carboxy-2,2,3-trimethylcyclopentyl)carbonyl]-1-[(3,4-dichlorophenyl)methyl]-L-histidine] | 80 to 500 nM | 800 to 5000 nM | 148 to 149 °C (dec.) | ≤ -50% | -50 to -10% | –
Cc1ccccc1C(=O)Nc1ccc(C[C@H](NC(=O)[C@H]2CC[C@@](C)(C(=O)O)C2(C)C)C(=O)O)cc1 [Example 142] | 80 to 500 nM | 800 to 5000 nM | 152 to 155 °C | – | – | –
CC1(C)[C@@H](C(=O)N[C@@H](Cc2ccc(NC(=O)c3ccccc3N)cc2)C(=O)O)CC[C@@]1(C)C(=O)O [Example 144] | 80 to 500 nM | 800 to 5000 nM | 195 to 198 °C | – | – | –
CC1(C)[C@@H](C(=O)N[C@@H](Cc2ccc(NC(=O)C3Cc4ccccc4CN3)cc2)C(=O)O)CC[C@@]1(C)C(=O)O (stereo partly drawn) [Example 146] | 80 to 500 nM | 800 to 5000 nM | 208 to 211 °C | – | – | –
Cc1ccc(S(=O)(=O)Nc2ccc(C[C@H](NC(=O)[C@H]3CC[C@@](C)(C(=O)O)C3(C)C)C(=O)O)cc2)cc1 [Example 150] | 500 to 1000 nM | 800 to 5000 nM | 220 to 223 °C | – | – | –
CC1(C)[C@@H](C(=O)N[C@@H](Cc2ccc(OCc3c(Cl)cccc3Cl)cc2)C(=O)O)CC[C@@]1(C)C(N)=O [Example 155, (1S-cis)-N-[[3-(Aminocarbonyl)-2,2,3-trimethylcyclopentyl]carbonyl]-O-[(2,6-dichlorophenyl)methyl]-L-tyrosine] | 500 to 1000 nM | 5000 to 10000 nM | 102 to 104 °C | – | – | –
CC1(C)[C@@H](C(=O)N[C@@H](Cc2ccc(NC(=O)c3cccnc3Cl)cc2)C(=O)O)CC[C@@]1(C)C(=O)O [Example 208, (1S-cis)-N-[(3-Carboxy-2,2,3-trimethylcyclopentyl)carbonyl]-4-[[(2-chloro-3-pyridinyl)carbonyl]amino]-L-phenylalanine] | 80 to 500 nM | ≤ 800 nM | 172 to 174 °C | – | – | –
CC1(C)[C@@H](C(=O)N[C@@H](Cc2ccc(NC(=O)c3c(Cl)cccc3Cl)cc2)C(=O)O)CC[C@@]1(C)C(=O)NOCc1ccccc1 [Example 217] | ≤ 80 nM | ≤ 800 nM | – | -50 to -10% | -10 to 0% | –

Continued, in another order:

IC50 [2] | IC50 [3] | melting point | SMILES | change in vivo at 50 mg/kg [1, 6] | change in vivo at 50 mg/kg [1, 7] | also measured
≤ 80 nM | ≤ 800 nM | 231 to 233 °C | CC1(C)[C@@H](C(=O)N[C@@H](Cc2ccc(NC(=O)c3c(Cl)cccc3Cl)cc2)C(=O)O)CC[C@@]1(C)C(=O)O [Example 54, (1S-cis)-N-[(3-Carboxy-2,2,3-trimethylcyclopentyl)carbonyl]-4-[(2,6-dichlorobenzoyl)amino]-L-phenylalanine] | – | – | change in vivo at 50 mg/kg ([1]; Eosinophil, 50 mg/kg × 4 iv (0h,+1h,+2h,+3h relative to dextran), read-out: %Δ Pleural Leukocytes, Eos): ≤ -50%; change in vivo at 50 mg/kg ([1]; Neutrophil, 50 mg/kg × 4 iv (0h,+1h,+2h,+3h relative to dextran), read-out: %Δ Pleural Leukocytes, Neutro): -50 to -10%
≤ 80 nM | 800 to 5000 nM | 92 to 94 °C | CC1(C)[C@@H](C(=O)N[C@@H](Cc2ccc(OCc3c(Cl)cccc3Cl)c([N+](=O)[O-])c2)C(=O)O)CC[C@@]1(C)C(=O)O [Example 63] | -50 to -10% | -50 to -10% | change in vivo at 25 mg/kg [1, 8]: -50 to -10%; change in vivo at 25 mg/kg [1, 9]: -50 to -10%
≤ 80 nM | ≤ 800 nM | – | CC1(C)[C@@H](C(=O)N[C@@H](Cc2ccc(NC(=O)c3c(Cl)cc(Cl)cc3Cl)cc2)C(=O)O)CC[C@@]1(C)C(=O)O [Example 93] | -50 to -10% | -10 to 0% | –
≤ 80 nM | ≤ 800 nM | 100 to 103 °C | CC1(C)[C@@H](C(=O)N[C@@H](Cc2ccc(NCc3c(Cl)cccc3Cl)cc2)C(=O)O)CC[C@@]1(C)C(=O)O [Example 152] | – | – | –
≤ 80 nM | ≤ 800 nM | 196 to 198 °C | CC1(C)[C@@H](C(=O)N[C@@H](Cc2ccc(NC(=O)c3c(Cl)cccc3Cl)cc2)C(=O)O)CC[C@@]1(C)C(N)=O [Example 166] | -50 to -10% | -10 to 0% | –
≤ 80 nM | ≤ 800 nM | – | CC1(C)[C@@H](C(=O)N[C@@H](Cc2ccc(NC(=O)c3c(Cl)cccc3Cl)cc2)C(=O)O)CC[C@@]1(C)C(=O)NCC(=O)O [Example 181, (1S-cis)-N-[[3-[[(Carboxymethyl)amino]carbonyl]-2,2,3-trimethylcyclopentyl]carbonyl]-4-[(2,6-dichlorobenzoyl)amino]-L-phenylalanine] | -50 to -10% | -50 to -10% | change in vivo at 25 mg/kg [1, 8]: -50 to -10%; change in vivo at 25 mg/kg [1, 9]: -50 to -10%
≤ 80 nM | ≤ 800 nM | – | CC1(C)[C@@H](C(=O)N[C@@H](Cc2ccc(NC(=O)c3c(Cl)cccc3Cl)cc2)C(=O)O)CC[C@@]1(C)C#N [Example 184, (1S-cis)-N-[[3-Cyano-2,2,3-trimethylcyclopentyl]carbonyl]-4-[(2,6-dichlorobenzoyl)amino]-L-phenylalanine] | ≤ -50% | -50 to -10% | change in vivo at 25 mg/kg [1, 8]: -50 to -10%; change in vivo at 25 mg/kg [1, 9]: -50 to -10%
≤ 80 nM | ≤ 800 nM | 246 to 247 °C | CC1(C)[C@@H](C(=O)N[C@@H](Cc2ccc(NC(=O)c3ccc(Cl)nc3Cl)cc2)C(=O)O)CC[C@@]1(C)C(=O)O [Example 209, (1S-cis)-N-[(3-Carboxy-2,2,3-trimethylcyclopentyl)carbonyl]-4-[[(2,6-dichloro-3-pyridinyl)carbonyl]amino]-L-phenylalanine] | – | – | –
≤ 80 nM | ≤ 800 nM | 128 to 131 °C | COc1nc(Cl)ccc1C(=O)Nc1ccc(C[C@H](NC(=O)[C@H]2CC[C@@](C)(C(=O)O)C2(C)C)C(=O)O)cc1 [Example 210, (1S-cis)-N-[(3-Carboxy-2,2,3-trimethylcyclopentyl)carbonyl]-4-[[(2-methoxy-6-chloropyridin-3-yl)carbonyl]-amino]-L-phenylalanine] | – | – | –
